Two compounds from ChEMBL document CHEMBL1146266, “Kojic acid and its manganese and zinc complexes as potential radioprotective agents” (Bioorg Med Chem Lett, 2007) can be followed below.

The test system of data set [1] is Mus musculus. Kind of data set: Increase in survival of subcutaneously dosed NMRI mouse irradiated with cobalt 60 gamma relative to control. Type of data set: functional, organism-based.
Data set [2] concerns Mus musculus. Description: Survival of NMRI mouse for 30 days at 214 mg/kg, sc administered 24 hrs before cobalt 60 gamma irradiation. Type of data set: functional. As to conditions: light or radiation study, route subcutaneous.
In data set [3] the test system is Mus musculus. Description: Survival of NMRI mouse subcutaneously dosed 30 mins before cobalt 60 gamma irradiation. Type of data set: functional.
A short description of data set [4]: Toxicity in subcutaneously injected NMRI mouse. Format: organism-based. To be noted: in vivo, sc.
Data set [5] concerns Mus musculus. Description: Survival of NMRI mouse for 30 days at 142 mg/kg, sc administered 24 hrs before cobalt 60 gamma irradiation. Type of data set: functional. To be noted: light or radiation study, route subcutaneous.
Data set [6] relates to Mus musculus. Kind of data set: Survival of NMRI mouse for 30 days at 71 mg/kg, sc administered 24 hrs before cobalt 60 gamma irradiation. Type of data set: functional. As to conditions: light or radiation study, route subcutaneous.

Activity calls are given as the source filed them. The rule behind the calls is not given here.

Consider `NCCCNCCSP(=O)(O)O` [AMIFOSTINE], for which the result in the data set with Mus musculus [1] was Active. Further, the survival at 214 mg/kg with Mus musculus [2] was 81%. For the same compound, the Survival in the data set on Mus musculus [3] is reported as 90%.
Usually LD50 stands for the dose at which mortality reaches 50%. Regarding `O=c1cc(CO)occ1O` [KOJIC ACID], in the data set with Mus musculus [1], the outcome was Active. The compound further yielded an LD50 in data set [4] of 1400 mg/kg. In the data set on Mus musculus [5], this compound showed a survival at 142 mg/kg of 63%. The survival at 71 mg/kg in the data set with Mus musculus [6] stood at 28%.
